Reference: patent publication US4503056A, “1-(Pyridazinyl)pyrazoline derivatives” (Abbott Laboratories, priority 1982, dated 1985)

Columns and labels:
dermal Arthus reaction = experiment: reverse passive Arthus reaction test; type: in vivo, Male Sprague-Dawley rats; conditions: rats; 100 mg/kg oral, 30 min before intradermal Anti-B.S.A.; lesion measured 4 hours later; reduction in lesion area vs control
Method: Proc. 35, 774 (1976). Each compound was administered orally to a group of four animals.
The reverse passive Arthus reaction test in rats is conducted as follows: Male Sprague-Dawley rats weighing approximately 130-160 g. are used, 4 rats per group. All animals are injected intravenously with 0.5 ml. 0.075% Bovine Serum Albumin (B.S.A.)+2% Evans Blue solution. Each rat then receives an oral dose of drug; one drug is administered per group.
Thirty minutes subsequent to drug dosing, each animal is injected intradermally with 0.05 ml. 1.44% Anti-B.S.A. into the dorsal skin. Four hours later the animals are sacrificed, the dorsal skin reflexed, and the lesion excised. Two perpendicular diameters of each lesion are measured. The average diameters of the lesions from the treated groups are compared with the average diameters from the control group to determine any drug effect.

carrageenin pleurisy = experiment: modification of the carrageenin pleurisy assay (Vinegar et al.); type: in vivo; conditions: Dose 100 (dose unit not given); for % Inhibition, Volume exudates: reduction in accumulation of exudate volume; for % Inhibition, Cells: reduction in accumulation of leukocytes
Text: The anti-inflammatory activity of these compounds was established by using a modification of the carrageenin pleurisy assay described by Vinegar et al. Proc. Soc. Exp. Biol. Med. 143:711 (1973).

SMILES | % Inhibition of lesion of dermal Arthus reaction (dermal Arthus reaction) | % Inhibition, Volume exudates (carrageenin pleurisy) [%] | % Inhibition, Cells (carrageenin pleurisy) [%]
CC1CC(N)=NN1c1ccc(-c2ccccc2)nn1 (stereo not drawn) [1-[6'-phenylpyridazin-3'-yl]-3-amino-5-methylpyrazol-2-ene] | 54% |  | 
NC1=NN(c2ccc(-c3ccccc3)nn2)CC1 [1-[6'-Phenylpyridazin-3'-yl]-3-aminopyrazol-2-ene] | 65% | 73 | 51
NC1=NN(c2ccc(-c3ccccc3Cl)nn2)CC1 [1-[6'-(ortho-chlorophenyl)-pyridazin-3'-yl]-3-aminopyrazol-2-ene] | 58% |  | 
CCCCC1C(=O)N(c2ccccc2)N(c2ccccc2)C1=O [Phenylbutazone, reference compound] | inactive | 59 | 13
NC1=NN(c2ccc(-c3cccc(Cl)c3)nn2)CC1 [1-[6'-(meta-chlorophenyl)pyridazin-3'-yl]-3-aminopyrazol-2-ene] | 51% |  | 
